This note sets out measurements from ChEMBL document CHEMBL5236637, “Expanding the Chemical Space of Drug-like Passerini Compounds: Can α-Acyloxy Carboxamides Be Considered Hard Drugs?” (ACS Med Chem Lett, 2022).

Series [1] in a line: Hydrolytic stability in mouse liver microsomes assessed as esterase-mediated compound hydrolysis by measuring residual substrate activity incubated for 30 mins by LC-HRMS analysis. In kind it is ADME, Microsome. The settings on record: for Stability: microsomes, 0.5 h.
In another series the test system is Pseudomonas aeruginosa. In words: Antibacterial activity against Pseudomonas aeruginosa ATCC 9027 assessed inhibition zone at 1 mg/ml preincubated at room temperature for 1 hr and measured after 24 hrs by agar well-diffusion method. In kind it is functional. As to conditions: time 25.0 hrs. (In general: In agar diffusion tests the substance spreads into inoculated agar from a disc or well.)

For `COC(=O)c1c(C)cccc1C`, the Stability entry in series [1] is recorded as “Stable”.
On to `CC(C)(C)NC(=O)COC(=O)c1ccccc1-c1ccccc1`, for which, in series [1] (liver microsomes, read-out: Stability), the remaining at 0.5 h is 81%.
Take `COC(=O)c1ccccc1` [METHYL BENZOATE]: the Stability result in series [1] was “Unstable”.
Molecule GENTAMICIN returned an inhibition zone (IZ) with Pseudomonas aeruginosa of 22.3 mm.
